Results as given in publication PMC11277489, “Novel Piperazine Derivatives of Vindoline as Anticancer Agents” (International Journal of Molecular Sciences, 2024).

Experiments:
OVCAR-3 = experiment: NCI60 one-dose screen (10 μM), Ovarian Cancer; assay type: cell-based; settings: Homo sapiens, OVCAR-3, read-out: Growth percent rate
M14 = experiment: NCI60 one-dose screen (10 μM), Melanoma; assay type: cell-based; settings: Homo sapiens, M14, read-out: Growth percent rate
SK-MEL-28 = experiment: NCI60 one-dose screen (10 μM), Melanoma; assay type: cell-based; settings: Homo sapiens, SK-MEL-28, read-out: Growth percent rate
SN12C = experiment: NCI60 one-dose screen (10 μM), Renal Cancer; assay type: cell-based; settings: Homo sapiens, read-out: Growth percent rate
SF-539 = experiment: NCI60 one-dose screen (10 μM), CNS Cancer; assay type: cell-based, human; settings: Homo sapiens, SF-539, read-out: Growth percent rate
TK-10 = experiment: NCI60 one-dose screen (10 μM), Renal Cancer; assay type: cell-based; settings: Homo sapiens, TK-10, read-out: Growth percent rate
NCI-H322M = experiment: NCI60 one-dose screen (10 μM), Non-small Cell Lung Cancer; assay type: cell-based; settings: Homo sapiens, read-out: Growth percent rate
HCT-15 = experiment: NCI60 one-dose screen (10 μM), Colon Cancer; assay type: cell-based; settings: Homo sapiens, HCT-15, read-out: Growth percent rate
CCRF-CEM = experiment: NCI60 one-dose screen (10 μM), Leukemia; assay type: cell-based; settings: Homo sapiens, read-out: Growth percent rate
SW-620 = experiment: NCI60 one-dose screen (10 μM), Colon Cancer; assay type: cell-based; settings: Homo sapiens, SW-620, read-out: Growth percent rate
RPMI-8226 = experiment: NCI60 one-dose screen (10 μM), Leukemia; assay type: cell-based; settings: Homo sapiens, RPMI-8226, read-out: Growth percent rate
U251 = experiment: NCI60 one-dose screen (10 μM), CNS Cancer; assay type: cell-based; settings: Homo sapiens, U-251, read-out: Growth percent rate
UACC-257 = experiment: NCI60 one-dose screen (10 μM), Melanoma; assay type: cell-based; settings: Homo sapiens, UACC-257, read-out: Growth percent rate
NCI-H460 = experiment: NCI60 one-dose screen (10 μM), Non-small Cell Lung Cancer; assay type: cell-based; settings: Homo sapiens, NCI-H460, read-out: Growth percent rate
NCI-H522 = experiment: as above; assay type: cell-based; settings: Homo sapiens, NCI-H522, read-out: Growth percent rate
DU-145 = experiment: NCI60 one-dose screen (10 μM), Prostate Cancer; assay type: cell-based; settings: Homo sapiens, DU-145, read-out: Growth percent rate
RXF 393 = experiment: NCI60 one-dose screen (10 μM), Renal Cancer; assay type: cell-based, human; settings: Homo sapiens, RXF 393, read-out: Growth percent rate
SF-295 = experiment: NCI60 one-dose screen (10 μM), CNS Cancer; assay type: cell-based; settings: Homo sapiens, SF-295, read-out: Growth percent rate
SK-MEL-2 = experiment: NCI60 one-dose screen (10 μM), Melanoma; assay type: cell-based; settings: Homo sapiens, SK-MEL-2, read-out: Growth percent rate
ACHN = experiment: NCI60 one-dose screen (10 μM), Renal Cancer; assay type: cell-based; settings: Homo sapiens, read-out: Growth percent rate
SNB-19 = experiment: NCI60 one-dose screen (10 μM), CNS Cancer; assay type: cell-based; settings: Homo sapiens, SNB-19, read-out: Growth percent rate
HOP-62 = experiment: NCI60 one-dose screen (10 μM), Non-small Cell Lung Cancer; assay type: cell-based; settings: Homo sapiens, HOP-62, read-out: Growth percent rate
OVCAR-8 = experiment: NCI60 one-dose screen (10 μM), Ovarian Cancer; assay type: cell-based; settings: Homo sapiens, OVCAR-8, read-out: Growth percent rate
KM12 = experiment: NCI60 one-dose screen (10 μM), Colon Cancer; assay type: cell-based, human; settings: Homo sapiens, KM12, read-out: Growth percent rate
SK-MEL-5 = experiment: NCI60 one-dose screen (10 μM), Melanoma; assay type: cell-based, human; settings: Homo sapiens, SK-MEL-5, read-out: Growth percent rate
LOX IMVI = experiment: NCI60 one-dose screen (10 μM), Melanoma; assay type: cell-based, human; settings: Homo sapiens, LOX IMVI, read-out: Growth percent rate
[1] = test system: 60 human tumor cell lines (NCI60); experiment: NCI60 one-dose screen (10 μM), whole panel; assay type: cell-based
HCT-116 = experiment: NCI60 one-dose screen (10 μM), Colon Cancer; assay type: cell-based; settings: Homo sapiens, HCT-116, read-out: Growth percent rate
MCF7 = experiment: NCI60 one-dose screen (10 μM), Breast Cancer; assay type: cell-based; settings: Homo sapiens, MCF7, read-out: Growth percent rate
COLO 205 = experiment: NCI60 one-dose screen (10 μM), Colon Cancer; assay type: cell-based, human; settings: Homo sapiens, COLO 205, read-out: Growth percent rate
SF-268 = experiment: NCI60 one-dose screen (10 μM), CNS Cancer; assay type: cell-based; settings: Homo sapiens, SF-268, read-out: Growth percent rate
HL-60(TB) = experiment: NCI60 one-dose screen (10 μM), Leukemia; assay type: cell-based; settings: Homo sapiens, HL-60, read-out: Growth percent rate
IGROV1 = experiment: NCI60 one-dose screen (10 μM), Ovarian Cancer; assay type: cell-based; settings: Homo sapiens, IGROV-1, read-out: Growth percent rate
HT29 = experiment: NCI60 one-dose screen (10 μM), Colon Cancer; assay type: cell-based; settings: Homo sapiens, HT-29, read-out: Growth percent rate
SNB-75 = experiment: NCI60 one-dose screen (10 μM), CNS Cancer; assay type: cell-based, human; settings: Homo sapiens, SNB-75, read-out: Growth percent rate
K-562 = experiment: NCI60 one-dose screen (10 μM), Leukemia; assay type: cell-based; settings: Homo sapiens, K562, read-out: Growth percent rate
A498 = experiment: NCI60 one-dose screen (10 μM), Renal Cancer; assay type: cell-based; settings: Homo sapiens, A498, read-out: Growth percent rate
MALME-3M = experiment: NCI60 one-dose screen (10 μM), Melanoma; assay type: cell-based; settings: Homo sapiens, Malme-3M, read-out: Growth percent rate
786–0 = experiment: NCI60 one-dose screen (10 μM), Renal Cancer; assay type: cell-based; settings: Homo sapiens, 786-0, read-out: Growth percent rate
A549/ATCC = experiment: NCI60 one-dose screen (10 μM), Non-small Cell Lung Cancer; assay type: cell-based; settings: Homo sapiens, A549, read-out: Growth percent rate
HS 578T = experiment: NCI60 one-dose screen (10 μM), Breast Cancer; assay type: cell-based; settings: Homo sapiens, Hs-578T, read-out: Growth percent rate
MOLT-4 = experiment: NCI60 one-dose screen (10 μM), Leukemia; assay type: cell-based, human; settings: Homo sapiens, MOLT-4, read-out: Growth percent rate

CC[C@]12C=CCN3CC[C@@]4(c5ccc(OC)cc5N(C)[C@H]4[C@@](O)(C(=O)OC)[C@@H]1OC(=O)CCCN1CCN(C(c4ccc(F)cc4)c4ccc(F)cc4)CC1)[C@@H]32 [Compound 25]
activity at 10 µM (OVCAR-3): -83% | activity at 10 µM (M14): -94.8% | activity at 10 µM (SK-MEL-28): -96.5% | activity at 10 µM (SN12C): -95% | activity at 10 µM (SF-539): -98.5% | activity at 10 µM (TK-10): -90.4% | activity at 10 µM (NCI-H322M): -71.7% | activity at 10 µM (HCT-15): -96.6% | activity at 10 µM (CCRF-CEM): -29.5% | activity at 10 µM (SW-620): -78.5% | activity at 10 µM (RPMI-8226): -50.1% | activity at 10 µM (U251): -79% | activity at 10 µM (UACC-257): -78.2% | activity at 10 µM (NCI-H460): -70.4% | activity at 10 µM (NCI-H522): -88.2% | activity at 10 µM (DU-145): -94.4% | activity at 10 µM (RXF 393): -94.5% | activity at 10 µM (SF-295): -91% | activity at 10 µM (SK-MEL-2): -89.5% | activity at 10 µM (ACHN): -69.4% | activity at 10 µM (SNB-19): -93.6% | activity at 10 µM (HOP-62): -77.2% | activity at 10 µM (OVCAR-8): -69.3% | activity at 10 µM (KM12): -96.9% | activity at 10 µM (SK-MEL-5): -99.6% | activity at 10 µM (LOX IMVI): -98.8% | growth rate ([1]; 10 μM one-dose, on almost all tested cancer types and cell lines, negative = lethality): < −60% | activity at 10 µM ([1]; Homo sapiens, read-out: Growth percent rate, Mean): -79.9% | activity at 10 µM (HCT-116): -98.6% | activity at 10 µM (MCF7): -88.2% | activity at 10 µM (COLO 205): -78.5% | activity at 10 µM (SF-268): -81.9% | activity at 10 µM (HL-60(TB)): -56.2% | activity at 10 µM (IGROV1): -77% | activity at 10 µM (HT29): -83.9% | activity at 10 µM (SNB-75): -86.4% | activity at 10 µM (K-562): -1.7% | activity at 10 µM (A498): -97.2% | activity at 10 µM (MALME-3M): -91% | activity at 10 µM (786–0): -96.4% | activity at 10 µM (A549/ATCC): -65.4% | activity at 10 µM (HS 578T): -60% | activity at 10 µM (MOLT-4): -31.9%
